Assay results from patent US9663494B2, “Inhibitors of bruton's tyrosine kinase” (Hoffmann-La Roche Inc., priority 2013, dated 2017).

Biological target: Bruton's Tyrosine Kinase (BTK), inactivated state (Homo sapiens (Human), UniProt Q06187)
Assay: Bruton's Tyrosine Kinase (BTK) Inhibition TR-FRET (Time Resolved FRET) competition assay
Format: binding
Settings: BTK-Eu / Kinase Tracer 178 competition, incubated 18-24 h at 14° C.
Protocol: 10) Add 50 μL microscint-20 and count ^33P cpm on scintillation counter. • Calculate percent activity from raw data in cpm percent activity=(sample−bkg)/(total activity−bkg)×100 • Calculate IC50 from percent activity, using one-site dose response sigmoidal model y=A+((B−A)/(1+((x/C)^D)))) • x=cmpd conc, y=% activity, A=min, B=max, C=IC50, D=1 (hill slope) Bruton's Tyrosine Kinase (BTK) Inhibition TR-FRET (Time Resolved FRET) Assay
This BTK competition assay measures compound potency (IC50) for the inactivated state of Bruton's Tyrosine Kinase using FRET (Förster/Flouresence Resonance Energy Transfer) technology. The BTK-Eu complex was incubated on ice one hour prior to use at a starting concentration of 50 nM BTK-Bioease™: 10 nM Eu-streptavidin (Perkin-Elmer Catalog# AD0062). The assay buffer consisted of 20 mM HEPES (pH 7.15), 0.1 mM DTT, 10 mM MgCl2, 0.5 mg/ml BSA with 3% Kinase Stabilizer (Fremont Biosolutions, Catalog # STB-K02). After 1 h, the reaction mixture from above was diluted 10 fold in assay buffer to make 5 nM BTK: 1 nM Eu-Streptavidin complex (donor fluorophore). 18 μl of a mixture of 0.11 nM BTK-Eu and 0.11 nM Kinase Tracer 178 (Invitrogen, Catalog # PV5593) with BTK-Eu alone as no negative control, was then dispensed into 384-well flat bottom plates (Greiner, 784076). Compounds to be tested in assay were prepared as 10× concentrations and serial dilution in half-log increments was performed in DMSO so as to generate 10 point curves. To initiate the FRET reaction, compounds prepared as 10× stock in DMSO was added to the plates and the plates were incubated 18-24 h at 14° C.

Sequence of Bruton's Tyrosine Kinase (BTK), inactivated state (Q06187 whole entry): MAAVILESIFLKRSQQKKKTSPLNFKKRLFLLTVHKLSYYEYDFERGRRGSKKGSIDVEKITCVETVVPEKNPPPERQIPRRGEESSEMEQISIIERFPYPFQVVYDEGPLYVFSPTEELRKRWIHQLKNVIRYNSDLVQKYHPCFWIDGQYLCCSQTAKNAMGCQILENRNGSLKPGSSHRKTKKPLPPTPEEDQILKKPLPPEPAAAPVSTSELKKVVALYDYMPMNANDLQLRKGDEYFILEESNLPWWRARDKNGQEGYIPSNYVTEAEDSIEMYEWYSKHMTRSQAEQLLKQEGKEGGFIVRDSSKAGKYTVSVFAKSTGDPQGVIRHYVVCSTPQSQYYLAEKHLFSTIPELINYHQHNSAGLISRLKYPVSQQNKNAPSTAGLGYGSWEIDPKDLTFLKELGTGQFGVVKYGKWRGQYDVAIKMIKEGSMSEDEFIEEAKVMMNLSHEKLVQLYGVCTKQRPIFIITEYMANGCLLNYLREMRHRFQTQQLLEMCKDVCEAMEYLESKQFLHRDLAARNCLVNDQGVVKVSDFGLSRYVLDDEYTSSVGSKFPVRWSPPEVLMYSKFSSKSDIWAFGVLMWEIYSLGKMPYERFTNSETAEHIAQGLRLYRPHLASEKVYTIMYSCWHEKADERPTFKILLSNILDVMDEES

IC50 [nM] | Compound
11.2 | Cn1nc(-c2cccc(N3CCc4cc(C(C)(C)C#N)ccc4C3=O)c2CO)cc(Nc2ccc(C(=O)N3CCOCC3)cn2)c1=O [Compound 1, 2-[2-[2-(hydroxymethyl)-3-[1-methyl-5-[[5-(morpholine-4-carbonyl)pyridin-2-yl]amino]-6-oxopyridazin-3-yl]phenyl]-1-oxo-3,4-dihydroisoquinolin-6-yl]-2-methylpropanenitrile]
1.12 | Cn1nc(-c2cccc(-n3ccc4cc(C(C)(C)C#N)cc(F)c4c3=O)c2CO)cc(Nc2ccc(OC(C)(C)CO)cn2)c1=O [Compound 2, 2-[8-fluoro-2-[2-(hydroxymethyl)-3-[5-[[5-(1-hydroxy-2-methylpropan-2-yl)oxypyridin-2-yl]amino]-1-methyl-6-oxopyridazin-3-yl]phenyl]-1-oxoisoquinolin-6-yl]-2-methylpropanenitrile]
52.6 | Cn1nc(-c2cccc(N3CCOc4cc(C(C)(C)CO)ccc4C3=O)c2CO)cc(Nc2ccc(S(C)(=O)=O)cn2)c1=O [Compound 3, 4-[2-(hydroxymethyl)-3-[1-methyl-5-[(5-methylsulfonylpyridin-2-yl)amino]-6-oxopyridazin-3-yl]phenyl]-8-(1-hydroxy-2-methylpropan-2-yl)-2,3-dihydro-1,4-benzoxazepin-5-one]
31.9 | Cn1cc(-c2cccc(NC(=O)N3Cc4ccc(Cl)cc4C3)c2CO)cc(Nc2ccc(C(=O)N3CCOCC3)cn2)c1=O [Compound 4, 5-chloro-N-[2-(hydroxymethyl)-3-[1-methyl-5-[[5-(morpholine-4-carbonyl)pyridin-2-yl]amino]-6-oxopyridin-3-yl]phenyl]-1,3-dihydroisoindole-2-carboxamide]
13.7 | Cn1cc(-c2cccc(N3CCc4cc(C(C)(C)C)ncc4C3=O)c2CO)cc(Nc2ccc(C(=O)N3CCOCC3)cn2)c1=O [Compound 5, 6-tert-butyl-2-[2-(hydroxymethyl)-3-[1-methyl-5-[[5-(morpholine-4-carbonyl)pyridin-2-yl]amino]-6-oxopyridin-3-yl]phenyl]-3,4-dihydro-2,7-naphthyridin-1-one]
14.6 | Cn1nc(-c2cccc(N3CCc4cc(C(C)(C)C)ncc4C3=O)c2CO)cc(Nc2ccc(C(=O)N3CCOCC3)cn2)c1=O [Compound 6, 6-tert-butyl-2-[2-(hydroxymethyl)-3-[1-methyl-5-[[5-(morpholine-4-carbonyl)pyridin-2-yl]amino]-6-oxopyridazin-3-yl]phenyl]-3,4-dihydro-2,7-naphthyridin-1-one]
6.5 | Cc1c(-c2cc(Nc3ccc(C(=O)N4CCOCC4)cn3)c(=O)n(C)n2)cccc1-n1ncc2cc(C(C)(C)C)cc(F)c2c1=O [Compound 7, 6-tert-butyl-8-fluoro-2-[2-methyl-3-[1-methyl-5-[[5-(morpholine-4-carbonyl)pyridin-2-yl]amino]-6-oxopyridazin-3-yl]phenyl]phthalazin-1-one]
1.77 | Cn1nc(-c2cccc(N3CCOc4cc(C(C)(C)C)ccc4C3=O)c2CO)cc(Nc2ccc(C(=O)N3CCOCC3)cn2)c1=O [Compound 8, 8-tert-butyl-4-[2-(hydroxymethyl)-3-[1-methyl-5-[[5-(morpholine-4-carbonyl)pyridin-2-yl]amino]-6-oxopyridazin-3-yl]phenyl]-2,3-dihydro-1,4-benzoxazepin-5-one]
4.24 | Cn1nc(-c2cccc(N3CCOc4cc(C(C)(C)C)ccc4C3=O)c2CO)cc(Nc2ccc(S(C)(=O)=O)cn2)c1=O [Compound 9, 8-tert-butyl-4-[2-(hydroxymethyl)-3-[1-methyl-5-[(5-methylsulfonylpyridin-2-yl)amino]-6-oxopyridazin-3-yl]phenyl]-2,3-dihydro-1,4-benzoxazepin-5-one]
